Results as given in patent US9283236B2 (HUMAN MATRIX SCIENCES, LLC, priority 2008, dated 2016).
Entries after “also recorded” stand apart in the source; their conditions may differ.

Legend:
[1] = system: human fetal cardiac fibroblasts; assay: Immunostaining of elastic fibers with anti-elastin antibody; type: cell-based; details: 10 μM PP2, 1 hour pretreatment, 50 nM aldosterone
Method: (§1) At the end of the 72-hour incubation period with the indicated treatment, confluent cultures were either fixed in ice-cold 100% methanol at −20° C. (for elastin staining) or in 4% paraformaldehyde at room temperature (for collagen staining) for 30 minutes and blocked with 1% normal goat serum for 1 hour at room temperature. The cultures were then incubated for 1 hour with 10 μg/ml polyclonal antibody to tropoelastin or with 10 μg/ml polyclonal antibody to collagen type I. All cultures were then incubated for an additional hour with fluorescein-conjugated goat anti-rabbit or with fluorescein-conjugated rabbit anti-goat secondary antibodies to detect elastin and collagen type I staining, respectively. Nuclei were counterstained with propidium iodide. Secondary antibody alone was used as a control. All of the cultures were then mounted in Elvanol and examined with a Nikon Eclipse E1000 microscope attached to a cooled charge-coupled device camera (Retiga EX; QImaging, Surrey, BC, Canada) and a computer-generated video analysis system (Image-Pro Plus software; Media Cybernetics, Silver Spring, Md.).
Immunostaining—At the end of the 72-hour incubation period with the indicated treatment, confluent cultures were fixed in cold 100% methanol at −20° C. […]

[2] = system: human fetal cardiac fibroblasts; assay: One-step RT-PCR of elastin mRNA in cardiac fibroblast cultures; type: cell-based
[3] = system: c-Src; assay: Western blot of phospho-c-Src (Tyr416); type: cell-based, human
Method: (§2) Western blotting—Confluent fetal human cardiac fibroblast cultures were exposed with or without the treatment specified for the indicated time points. At the end of each experiment cells were lysed using an RIPA buffer (50 mM Tris.HCl, pH 7.4; 150 mM NaCl; 1 mM EDTA; 10 mM NaF; 1% Triton X-100; 0.1% SDS; 1% Na deoxycholate) containing a cocktail of antiproteases (20 μg/ml leupeptin, 10 μg/ml aprotinin, 0.1 mM PMSF, 1 mM DTT) and antiphosphates ([…] orthovanadate, 2 μg/ml pepstatin). Then 40-60 μg of protein extract was resuspended in sample buffer (0.5 M Tris.HCl, pH 6.8; 10% SDS; 10% glycerol; 4% 2-β-mercaptoethanol; and 0.05% bromophenol blue), and the mixture was boiled for 5 minutes. Protein lysates were resolved by precast SDS-PAGE gel (4-12% gradient), transferred to nitrocellulose membranes, blocked for an hour, and then immunoblotted with polyclonal anti-MR antibody, anti-phospho-c-Src (Tyr416) antibody, anti-phospho-Akt (Ser473) antibody, anti-Gα13 (goat) antibody, anti-SCAP2 antibody, or with buffer (TBS-T) at 4° C. overnight. All blots were then incubated with the appropriate HRP-conjugated secondary antibodies for an hour and examined using the enhanced chemiluminescence detection system. Blots were stripped and reprobed using specified antibodies. […] The degree of expression or phosphorylation of immunodetected signaling molecules was measured by densitometry.

[4] = system: Akt; assay: Western blot of phospho-Akt (Ser473); type: cell-based, human
Method: as §2

[5] = system: human fetal cardiac fibroblasts; assay: Quantitative assay of [3H]valine-labeled insoluble elastin; type: cell-based; details: 72 hours
[6] = system: human fetal cardiac fibroblasts; assay: Immunostaining of collagen type I fibers in confluent cultures; type: cell-based; details: 1 to 50 nmol/L, 72 hours
[7] = system: adult human cardiac fibroblasts; assay: One-step RT-PCR of elastin mRNA in adult cardiac fibroblasts; type: cell-based; details: 1 to 50 nmol/L, 24 hours, normalized to GAPDH mRNA
[8] = system: human fetal cardiac fibroblasts; assay: Cytotoxic effects of supraphysiological aldosterone in cardiac fibroblast cultures; type: cell-based; details: aldosterone 100 nmol/L and 1 μmol/L
[9] = system: Gα13 and c-Src; assay: Co-immunoprecipitation of Gα13 and c-Src; type: cell-based, human
[10] = system: IGF-IR; assay: IGF-IR immunoprecipitation and anti-phosphotyrosine blot; type: cell-based, human
Method: Cells were lysed using an radioimmunoprecipitation assay buffer [50 mmol/L Tris-HCl, pH 7.4, 150 mmol/L NaCl, 1 mmol/L ethylenediamine tetraacetic acid, 10 mmol/L NaF, 1% Triton X-100, 0.1% sodium dodecyl sulfate, 1% sodium deoxycholate containing a cocktail of antiproteases (20 μg/ml leupeptin, 10 μg/ml aprotinin, 0.1 mmol/L phenylmethylsulfonyl fluoride, and 1 mmol/L dithiothreitol) and antiphosphates ([…] orthovanadate and 2 μg/ml pepstatin)], and 300 μg of protein extract was incubated with an antibody against IGF-IRβ for 1 hour at 4° C., followed by the addition of 4% protein A-beaded agarose left overnight, as previously described. The resulting protein-antibody conjugate was centrifuged at 4° C. and washed four times with phosphate-buffered saline. The final pellet was resuspended in sample buffer (0.5 mol/L Tris-HCl, pH 6.8, 10% sodium dodecyl sulfate, 10% glycerol, 4% 2-B-mercaptoethanol, and 0.05% bromphenol blue), and the mixture was boiled for 5 minutes. Proteins were resolved by 12% sodium dodecyl sulfate-polyacrylamide gel electrophoresis, transferred to nitrocellulose membranes, and then immunoblotted with anti-p-Tyr or anti-IGF-IR antibodies. The degree of expression or phosphorylation of immunodetected signaling molecules was measured by densitometry.
At the end of each experiment the cells were lysed as specified above, and 300 μg of protein extract were then precleared for 1 hour with normal rabbit agarose conjugated-IgG at 4° C. and incubated with rabbit polyclonal antibodies against IGF-IR-β, c-Src, or with Gα13 for 1 hour at 4° C., followed by the addition of 4% protein A-beaded agarose and left overnight. The resulting protein-antibody conjugate was centrifuged at 4° C. and washed four times with PBS. The final pellet was resuspended in sample buffer, and the proteins were resolved. Following immunoprecipitation of IGF-IR-β, the membrane was immunoblotted using monoclonal anti-p-Tyr antibody, stripped, and reprobed using anti-IGF-IR-β. Following immunoprecipitation of c-Src, the membranes were immunoblotted using polyclonal goat antibodies against anti-Gα13, while those immunoprecipitated with anti-Gα13 were developed with monoclonal anti-c-Src antibody. Blots were stripped and re-probed for equal loading.
The degree of expression or phosphorylation of immunodetected signaling molecules was measured by densitometry.

[11] = system: human fetal cardiac fibroblasts; assay: One-step RT-PCR of collagen type I mRNA in cardiac fibroblast cultures; type: cell-based; details: 1 to 50 nmol/L, 24 hours, normalized to GAPDH mRNA, vs untreated control
[12] = system: human fetal cardiac fibroblasts; assay: Quantitative assay of [3H]valine-labeled immunoprecipitable tropoelastin; type: cell-based; details: 1 to 50 nmol/L, 72 hours, vs untreated
Method: Fetal human cardiac fibroblasts were grown to confluence in 35-mm culture dishes (100,000 cells/dish) in quadruplicate. […] Cultures were incubated for 72 hours, and the soluble and insoluble elastin were assessed separately in each dish. The cells were extensively washed with phosphate-buffered saline, and the soluble proteins present in the intracellular compartments were extracted overnight at 4° C. with 0.1 mol/L acetic acid in the presence of proteinase inhibitors. After centrifugation, the supernatants were precleaned by 30-minute incubation with 50 μl of 4% protein A-beaded agarose, and then 500 μl of the supernatant was incubated with 5 μg of polyclonal antibody to tropoelastin for 2 hours and subsequently with 50 μl of 4% protein A-beaded agarose for 3 hours at 4° C. The protein A-containing beads were sedimented by centrifugation, washed with immunoprecipitation buffer, mixed with scintillation fluid, and counted. […] The resulting pellets containing the insoluble elastin were then solubilized by boiling in 200 μl of 5.7 N HCl for 1 hour, and the aliquots were mixed in scintillation fluid and counted. […] Final results reflecting amounts of metabolically labeled insoluble elastin in individual cultures were normalized per their DNA content and expressed as counts per minute per 1 μg of DNA.

[13] = system: adult human cardiac fibroblasts; assay: Anti-elastin immunostaining in adult cardiac fibroblasts; type: cell-based; details: 1 to 50 nmol/L, 72 hours
Method: as §1, with “Control cell cultures received an equal amount of the solvent vehicle. […] ScienCell (San Diego, Calif.). At” for “At”, “-20°” for “−20°”, “(for elastin staining) or in 4% paraformaldehyde at room temperature (for collagen staining) for 30 minutes and blocked with 1% normal goat serum for 1 hour at room temperature.” left out, “E1000” left out

[14] = system: rat myocardial infarction model; assay: Rat myocardial infarction model, postinfarction scar; type: in vivo; details: treated during the postinfarction period, vs vehicle-treated animals
[15] = 10 μM PP2 1 hour preincubation or 72 hour Gα13 siRNA transfection
[16] = 50 nM aldosterone, 30 minutes to 16 hours

SMILES: CC(C)(C)n1nc(-c2ccc(Cl)cc2)c2c(N)ncnc21 [PP2]
- effect on aldosterone-induced upregulation in elastic fiber production [1]: abolished an increase in elastin mRNA levels and the consequent upregulation in elastic fiber production
- effect on aldosterone-induced increase in elastin mRNA levels ([2]; agent added 1 hour (CT04 2 hours) before aldosterone, 24 hours): abolished an increase in elastin mRNA levels
- effect on aldosterone-induced c-Src phosphorylation [3, 15]: abolished this effect
- effect on aldosterone-induced increase in phosphorylation of Akt [4, 15]: is indeed eliminated; also recorded: eliminates this effect
- effect on aldosterone-induced increase in insoluble elastin production ([5]; agent added 1 hour before aldosterone (50 nM or 1 to 50 nmol/L)): eliminated the aldosterone-induced increase in the net deposition of insoluble elastin

SMILES: C[C@]12CCC(=O)C=C1CC[C@@H]1[C@@H]2[C@@H](O)C[C@]2(C=O)[C@@H](C(=O)CO)CC[C@@H]12 [aldosterone]
- deposition of collagen fibers [6]: subsequent deposition of collagen fibers
- elastin mRNA transcript levels, adult cardiac fibroblasts [7]: dose-dependently increased elastin mRNA transcript levels
- cytotoxic effects [8]: did not produce any cytotoxic effects
- time at which the Gα13/c-Src interaction was most evident ([9]; 50 nM aldosterone for 1, 5 or 10 minutes): 5 min
- interaction between c-Src and Gα13 ([9]; vs untreated controls): increases the interaction between Gα13 and c-Src
- IGF-IR tyrosine phosphorylation, aldosterone together with IGF-I vs IGF-I alone ([10]; 50 nmol/L aldosterone with 10, 25 or 50 ng/ml IGF-I, serum-free, 10 minutes): exhibit higher levels of IGF-IR tyrosine phosphorylation than their respective counterparts treated with the same doses of IGF-I alone
- tyrosine phosphorylation of the IGF-IR ([10]; 10-minute exposure, 10% fetal bovine serum, aldosterone or BSA-conjugate 50 nM, IGF-I 100 ng/ml): transient increase in tyrosine phosphorylation of the IGF-IR above basal level; also recorded: produced a transient increase in tyrosine phosphorylation of the IGF-IR in control cultures; also recorded: significant increase in tyrosine phosphorylation of IGF-IR over basal levels
- tyrosine phosphorylation of the IGF-IR, dependence on serum ([10]; presence vs absence of fetal bovine serum): induced a similar effect only in the presence of serum
- time at which tropoelastin mRNA begins to significantly increase [2, 16]: 1 h
- time of maximum tropoelastin mRNA level [2, 16]: 3 to 6 h
- elastin mRNA transcript levels ([2]; 1 to 50 nmol/L, 24 hours, normalized to GAPDH mRNA, vs untreated control): heightened elastin mRNA levels, in a dose-dependent manner; also recorded: dose-dependently increased elastin mRNA transcript levels
- phosphorylation of c-Src on Tyr416 ([3]; 50 nM aldosterone, 10 minutes): increased phosphorylation of c-Src on Tyr416; also recorded: leading to activation of c-Src
- collagen type I mRNA transcript levels [11]: significant increase in the steady-state level of collagen type I mRNA; also recorded: significantly increased collagen type I mRNA transcript levels
- basal phosphorylation of Akt ([4]; 50 nM aldosterone, 10 minutes): significant increase in the basal phosphorylation of Akt
- [3H]valine-labeled tropoelastin [12]: proportional increase; also recorded: up to approximately three times more
- [3H]valine incorporation into insoluble elastin ([5]; 1 to 50 nmol/L, vs untreated): proportional increase; also recorded: incorporate significantly more [^3H]valine into extracellular insoluble elastin
- number of immunodetectable elastic fibers, adult cardiac fibroblasts [13]: significantly increased the number of immunodetectable elastic fibers

SMILES: COC(=O)[C@@H]1CC2=CC(=O)CC[C@]2(C)[C@@]23O[C@@H]2C[C@@]2(C)[C@@H](CC[C@@]24CCC(=O)O4)[C@H]13 [eplerenone]
- postinfarction scar composition [14]: produced scars with abundant elastic fibers
